{
  "source": "patent USRE38046E1",
  "about": "“Enhancement of the cellular immune response” (Biomira, Inc., priority 1986, dated 2003)",
  "key": {"TA3Ha cells": {"tested_on": "TA3Ha cells", "test": "Priming with antigen, challenge 2-3 days later with live TA3Ha cells, survival", "assay_type": "in vivo, mice", "description": "Groups of five mice at a time were primed with specific doses of T-alpha (TF) (Ta), T-beta (Tb) (asialo-GM1 disaccharide) and Tn S-Tags. After 2-3 days, they were challenged with 3×10^3 live TA3Ha cells.\nGroups of five mice were primed with specific doses of epi. After 2-3 days they were challenged with 3′10^3 live TA3Ha cells."}, "DTH effector cells": {"tested_on": "DTH effector cells", "test": "Local transfer of DTH: antigen-primed spleen/T cells co-injected with triggering antigen into foot pad, net DTH swelling", "assay_type": "in vivo, mice"}},
  "data": [
    {"substance": "Epiglycanin", "values": [
      {"measurement": "In Vivo Protection: Number of animals alive at 4 weeks", "setting": "TA3Ha cells; Dose of Ag 0.1 ug", "result": "1/20"},
      {"measurement": "In Vivo Protection: Number of animals alive at 4 weeks", "setting": "TA3Ha cells; Dose of Ag 0.5 ug", "result": "5/20"},
      {"measurement": "In Vivo Protection: Number of animals alive at 4 weeks", "setting": "TA3Ha cells; Dose of Ag 1.0 ug", "result": "8/20"},
      {"measurement": "In Vivo Protection: Number of animals alive at 4 weeks", "setting": "TA3Ha cells; Dose of Ag 5.0 ug", "result": "8/15"},
      {"measurement": "In Vivo Protection: Number of animals alive at 4 weeks", "setting": "TA3Ha cells; Dose of Ag 10.0 ug", "result": "7/20"},
      {"measurement": "No. alive (at d. 9)", "setting": "TA3Ha cells; priming dose 0.2 ug", "result": "2/5"},
      {"measurement": "Survival ave.", "setting": "TA3Ha cells; priming dose 0.2 ug", "result": 33.8, "unit": "days"},
      {"measurement": "No. alive (at d. 9)", "setting": "TA3Ha cells; priming dose 1 ug", "result": "4/5"},
      {"measurement": "Survival ave.", "setting": "TA3Ha cells; priming dose 1 ug", "result": 44.2, "unit": "days"},
      {"measurement": "No. alive (at d. 9)", "setting": "TA3Ha cells; priming dose 2 ug", "result": "4/5"},
      {"measurement": "Survival ave.", "setting": "TA3Ha cells; priming dose 2 ug", "result": 25.2, "unit": "days"},
      {"measurement": "No. alive (at d. 9)", "setting": "TA3Ha cells; priming dose 10 ug", "result": "0/4"},
      {"measurement": "Survival ave.", "setting": "TA3Ha cells; priming dose 10 ug", "result": 22.3, "unit": "days"},
      {"measurement": "No. alive (at d. 9)", "setting": "TA3Ha cells; priming dose 20 ug", "result": "1/5"},
      {"measurement": "Survival ave.", "setting": "TA3Ha cells; priming dose 20 ug", "result": 29.0, "unit": "days"},
      {"measurement": "No. alive (at d. 9)", "setting": "TA3Ha cells; priming dose 100 ug", "result": "1/5"},
      {"measurement": "Survival ave.", "setting": "TA3Ha cells; priming dose 100 ug", "result": 25.5, "unit": "days"},
      {"measurement": "protection against TA3Ha tumor cells", "setting": "TA3Ha cells; summary of Table 3", "result": "did provide protection"},
      {"measurement": "DTH reaction", "setting": "DTH effector cells; cells primed with the priming Ag, triggering Ag Fuc", "result": "not to those carbohydrate determinants which are not represented on epiglycanin"},
      {"measurement": "DTH reaction", "setting": "DTH effector cells; cells primed with the priming Ag, triggering Ag Ta, listed as epi", "result": "reaction was with the T alpha, T beta and Tn determinants"},
      {"measurement": "DTH reaction", "setting": "DTH effector cells; cells primed with the priming Ag, triggering Ag Tb, listed as epi", "result": "reaction was with the T alpha, T beta and Tn determinants"},
      {"measurement": "DTH reaction", "setting": "DTH effector cells; cells primed with the priming Ag, triggering Ag Tn, listed as epi", "result": "reaction was with the T alpha, T beta and Tn determinants"},
      {"measurement": "DTH reaction", "setting": "DTH effector cells; triggering antigen Epi-M (epi linked to SEPHAROSE microspheres)", "result": "induced a specific DTH response"},
      {"measurement": "DTH reaction", "setting": "DTH effector cells; triggering antigen irradiated TA3Ha cells", "result": "induced a specific DTH response"}
    ]}
  ]
}
